ChEMBL document CHEMBL4014345, “Development of Selective Clk1 and -4 Inhibitors for Cellular Depletion of Cancer-Relevant Proteins” (J Med Chem, 2017)

Molecular target: Dual specificity protein kinase CLK1 (Homo sapiens, UniProt P49759)
Assay: Inhibition of recombinant human GST-tagged Clk1 expressed in Escherichia coli at 100 nM using RS repeat substrate peptide after 15 mins in presence of [gamma-32]-ATP

Chain of Dual specificity protein kinase CLK1 (P49759 whole entry, looked up): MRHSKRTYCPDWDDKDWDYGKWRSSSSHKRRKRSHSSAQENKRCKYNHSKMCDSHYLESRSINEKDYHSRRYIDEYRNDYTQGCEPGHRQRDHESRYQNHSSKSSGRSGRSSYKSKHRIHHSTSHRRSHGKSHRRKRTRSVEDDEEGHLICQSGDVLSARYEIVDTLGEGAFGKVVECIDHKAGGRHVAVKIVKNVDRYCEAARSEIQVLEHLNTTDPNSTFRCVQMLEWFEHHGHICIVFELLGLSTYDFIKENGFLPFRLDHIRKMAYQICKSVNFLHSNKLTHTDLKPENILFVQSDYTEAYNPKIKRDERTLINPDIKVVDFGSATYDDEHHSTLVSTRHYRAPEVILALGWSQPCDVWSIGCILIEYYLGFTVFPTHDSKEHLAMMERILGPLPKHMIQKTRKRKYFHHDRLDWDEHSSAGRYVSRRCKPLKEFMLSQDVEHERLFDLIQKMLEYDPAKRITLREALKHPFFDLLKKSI

Row | Structure (SMILES) | inhibition
1 | COc1ccc2sc(C(=O)N(C)CCc3ccccc3)cc2c1 | 32.9%
2 | COc1ccc2sc(C(=O)NC3CC3)cc2c1 | 25%
3 | COc1ccc2sc(C(=O)NCCN)cc2c1 | 7.7%
4 | COc1ccc2sc(C(=O)N[C@H](C)C(C)(C)C)cc2c1 | 6%
5 | COc1ccc2sc(C(=O)N[C@@H](C)C(=O)O)cc2c1 | 0%
6 | COc1ccc2sc(C(=O)N3CCN(C)CC3)cc2c1 | 0%
7 | COc1ccc2sc(C(=O)Nc3nccs3)cc2c1 | 28.2%
8 | COc1ccc2sc(C(=O)NCC(F)(F)F)cc2c1 | 39.8%
9 | COc1ccc2sc(C(=O)N(C)CCn3ccnc3)cc2c1 | 9.4%
10 | COc1ccc2sc(C(=O)NCCn3ccnc3)cc2c1 | 0%
11 | COc1ccc2sc(C(=O)NCc3cccnc3)cc2c1 | 28.9%
12 | COc1ccc2sc(C(=O)N[C@H](C(=O)O)C(C)C)cc2c1 | 0%
13 | COc1ccc2sc(C(=O)N3CCCCC3)cc2c1 | 0%
14 | COc1ccc2sc(C(=O)NCc3ncc[nH]3)cc2c1 | 0%
15 | COc1ccc2sc(C(=O)N(C)Cc3ccccc3F)cc2c1 | 43.2%
16 | COC(=O)[C@@H](NC(=O)c1cc2cc(OC)ccc2s1)C(C)C | 18.8%
17 | COC(=O)CNC(=O)c1cc2cc(OC)ccc2s1 | 0%
18 | COc1ccc2sc(C(=O)N3CCOCC3)cc2c1 | 0%
19 | COc1ccc2sc(C(=O)N(C)Cc3ccccn3)cc2c1 | 34.6%
